Where a name gives a salt, the structure may show the parent alone.
What was measured:
carboxypeptidase Y and B = assay: Metabolic stability in carboxypeptidase mix (ESMS, SIM of the molecular ion); assay type: in vitro ADME; settings: stability after 24 h at 37° C. in carboxypeptidase Y and B, 50 mM ammoniumacetate pH 4.5; enzyme:substrate approx. 1:5 (w/w)
Method: (§1) Compounds of formula I may be evaluated for their metabolic stability.
(§2) Compounds were dissolved at a concentration of 1 μg/μl in water. 25 μl of this solution is added to 175 μl of the respective enzyme-solution (resulting in an enzyme:substrate ratio (w/w) of approximately 1:5). The solution is left at 37° C. overnight. 10 μl of the various degradation solutions is analyzed against a corresponding zero-sample using flow injection electrospray mass spectrometry (ESMS) with selected ion monitoring of the molecular ion. If the signal has decreased more than 20% compared to the zero-sample, the remainder of the solution is analyzed by HPLC and mass spectrometry in order to identify the extent and site(s) of degradation precisely.
(§3) Several standard peptides (ACTH 4-10, Angiotensin 1-14 and Glucagon) have been included in the stability tests in order to verify the ability of the various solutions to degrade peptides.
(§4) Enzymes (trypsin, chymotrypsin, elastase aminopeptidase M and carboxypeptidase Y and B) were all purchased from Boehringer Mannheim GmbH (Mannheim, Germany)
Carboxypeptidase mix: carboxypeptidase Y and B in 50 mM ammoniumacetate pH 4.5 (all concentrations 0.025 μg/μl).
(§5) Quantification of the compounds (before and after degradation) was done on the API III instrument using single ion monitoring of the molecular ion in question with flow injection of the analyte. […]

[1] = tested on: trypsin, chymotrypsin and elastase; assay: Metabolic stability in pancreatic enzyme mix (ESMS, SIM of the molecular ion); assay type: in vitro ADME; settings: stability after 24 h at 37° C. in trypsin, 100 mM ammoniumbicarbonate pH 8.0, enzyme:substrate approx. 1:5 (w/w)
Method: as §1, §2, §3, §4
Pancreatic enzyme mix: trypsin, chymotrypsin and elastase in 100 mM ammoniumbicarbonate pH 8.0 (all concentrations 0.025 μg/μl).
as §5

| melting point [°C] | Compound | Carboxy-peptidase mix (carboxypeptidase Y and B) | Pan. enzyme mix [1] |
| --- | --- | --- | --- |
| 240 to 241 | Cc1noc([C@@H](Cc2ccccc2)NC(=O)[C@@H](Cc2ccc3ccccc3c2)NC(=O)c2cccc(CN)c2)n1 (as salt: salt) |  |  |
| 198 to 200 | Cc1noc([C@@H](Cc2ccccc2)NC(=O)[C@@H](Cc2ccc3ccccc3c2)NC(=O)[C@@H]2CCCNC2)n1 (stereo in doubt) (as salt: salt) |  |  |
| 238 to 241 | Cc1noc([C@@H](Cc2ccccc2)NC(=O)[C@@H](Cc2ccc3ccccc3c2)NC(=O)C2CCNCC2)n1 (stereo in doubt) (as salt: salt) |  |  |

Continued, compound first:

| Compound | melting point [°C] | Carboxy-peptidase mix (carboxypeptidase Y and B) | Pan. enzyme mix [1] |
| --- | --- | --- | --- |
| Cc1noc([C@@H](Cc2ccccc2)NC(=O)C(Cc2ccc3ccccc3c2)NC(=O)/C=C/C(C)(C)N)n1 (stereo in doubt) (as salt: salt) | 161 to 167 |  |  |
| Glucagon |  | − (Unstable (more than 20% decrease in SIM signal after 24 h in degradation solution)) | − (Unstable (more than 20% decrease in SIM signal after 24 h in degradation solution)) |

Source: patent US6350767B1, “Compounds with growth hormone releasing properties” (Novo Nordisk A/S, priority 1995, dated 2002)
